In patent US9598440B2, “Inhibitors of IRAK4 activity” (MERCK SHARP & DOHME CORP., priority 2012, dated 2017):

Molecular target: IRAK4 (Homo sapiens (Human), UniProt Q9NWZ3)
Experiment: Determination of IRAK4 kinase activity (IMAP fluorescence polarization, phosphorylation of fluorescent peptide substrate)
Assay type: biochemical
Conditions: 0.5 nM GST tagged IRAK4, 100 nM peptide substrate RP7030, 100 μM ATP, 30 minutes at 25° C.
Protocol: The kinase activity of IRAK4 is determined by its ability to catalyze the phosphorylation of a fluorescent polypeptide substrate. The extent of phosphorylation is measured using IMAP technology (Molecular Devices) where the phosphorylated fluorescent substrate binds to the large M(III)-based nanoparticles which reduces the rotational speed of the substrate and thus increases its fluorescent polarization (FP).
Procedure: A 20 μl reaction mixture contains 10 mM TriHCl, pH 7.2, 0.5 nM GST tagged IRAK4 (SignalChem), 100 nM fluorescent peptide substrate (RP7030, Molecular Devices), 100 μM ATP, 1 mM DTT, 1 mM MgCl2, and 0.01% Tween 20. The reaction is initiated by the addition of ATP. After incubation for 30 minutes at 25° C., 60 μl of Progressive IMAP Reagent (Molecular Devices) is added to stop the reaction. Change in RP7030's FP is determined by a FP reader (Analyst HT, LJL BioSystems). Analytical LCMS Conditions: • Condition A: Phenomenex Luna C18 (4.6×250 mm), 95:5 to 5:95 water:MeCN (0.05% TFA), over 10 min, hold 6 min. • Condition B: Agilent SBC (3.0×50 mm), solvent A: H20-0.1% TFA; • solvent B: ACN-0.1% TFA; GRADIENT TABLE: 0 min:10% B, 0.3 min: 10% B, 1.5 min: 95% B, 2.70 min: 95% B, 2.76 min: 10% B, stop time 3.60 min.

Chain of IRAK4 (Q9NWZ3 whole entry): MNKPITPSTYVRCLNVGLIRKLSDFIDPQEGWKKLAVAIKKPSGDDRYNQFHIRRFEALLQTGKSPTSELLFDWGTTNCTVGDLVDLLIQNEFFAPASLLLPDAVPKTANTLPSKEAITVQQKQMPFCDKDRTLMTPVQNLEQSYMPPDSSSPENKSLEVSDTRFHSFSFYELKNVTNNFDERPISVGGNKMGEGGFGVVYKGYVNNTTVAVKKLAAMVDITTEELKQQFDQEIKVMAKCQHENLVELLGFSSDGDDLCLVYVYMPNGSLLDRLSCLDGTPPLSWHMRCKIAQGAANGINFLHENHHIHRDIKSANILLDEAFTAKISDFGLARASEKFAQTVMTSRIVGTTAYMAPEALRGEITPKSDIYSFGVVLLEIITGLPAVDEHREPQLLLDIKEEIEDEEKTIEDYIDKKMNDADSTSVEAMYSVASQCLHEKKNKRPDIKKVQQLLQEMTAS

IC50	SMILES
4.8 nM	OC[C@H]1C[C@@H](Nc2nc(Nc3cncnc3)ncc2-c2nc3ccccc3s2)[C@H](O)[C@@H]1O [Example 26, (1R,2S,3R,5R)-3-((5-(benzo[d]thiazol-2-yl)-2-(pyrimidin-5-ylamino)pyrimidin-4-yl)amino)-5-(hydroxymethyl)cyclopentane-1,2-diol]
5.3 nM	NC(=O)c1cccc(Nc2ncc(-c3nc4ccccc4s3)c(N[C@@H]3C[C@H](CO)[C@@H](O)[C@H]3O)n2)c1 [Example 27, 3-((5-(benzo[d]thiazol-2-yl)-4-(((1R,2S,3R,4R)-2,3-dihydroxy-4-(hydroxymethyl)cyclopentyl)amino)pyrimidin-2-yl)amino)benzamide]
10 nM	NC(=O)Cc1ccc(Nc2ncc(-c3nc4ccccc4s3)c(N[C@@H]3C[C@H](CO)[C@@H](O)[C@H]3O)n2)cc1 [Example 29, 2-(4-((5-(benzo[d]thiazol-2-yl)-4-(((1R,2S,3R,4R)-2,3-dihydroxy-4-(hydroxymethyl)cyclopentyl)amino)pyrimidin-2-yl)amino)phenyl)acetamide]
44 nM	OC[C@H]1C[C@@H](Nc2nc(Nc3ccncc3F)ncc2-c2nc3ccccc3s2)[C@H](O)[C@@H]1O [Example 30, (1R,2S,3R,5R)-3-((5-(benzo[d]thiazol-2-yl)-2-((3-fluoropyridin-4-yl)amino)pyrimidin-4-yl)amino)-5-(hydroxymethyl)cyclopentane-1,2-diol]
1.2 nM	Cc1cc(Nc2ncc(-c3nc4ccccc4s3)c(N[C@@H]3C[C@H](CO)[C@@H](O)[C@H]3O)n2)ccn1 [Example 31, (1R,2S,3R,5R)-3-((5-(benzo[d]thiazol-2-yl)-2-((2-methylpyridin-4-yl)amino)pyrimidin-4-yl)amino)-5-(hydroxymethyl)cyclopentane-1,2-diol]
496 nM	OC[C@H]1C[C@@H](Nc2nc(NC3CCCC3)ncc2-c2nc3ccccc3s2)[C@H](O)[C@@H]1O [Example 33, (1R,2S,3R,5R)-3-((5-(benzo[d]thiazol-2-yl)-2-(cyclopentylamino)pyrimidin-4-yl)amino)-5-(hydroxymethyl)cyclopentane-1,2-diol]
12 nM	CN(C)c1ccc(Nc2ncc(-c3nc4ccccc4s3)c(N[C@@H]3C[C@H](CO)[C@@H](O)[C@H]3O)n2)cc1 [Example 34, (1R,2S,3R,5R)-3-((5-(benzo[d]thiazol-2-yl)-2-((4-(dimethylamino)phenyl)amino)pyrimidin-4-yl)amino)-5-(hydroxymethyl)cyclopentane-1,2-diol]
10 nM	Cc1cc(C)cc(Nc2ncc(-c3nc4ccccc4s3)c(N[C@@H]3C[C@H](CO)[C@@H](O)[C@H]3O)n2)c1 [Example 35, (1R,2S,3R,5R)-3-((5-(benzo[d]thiazol-2-yl)-2-((3,5-dimethylphenyl)amino)pyrimidin-4-yl)amino)-5-(hydroxymethyl)cyclopentane-1,2-diol]
470 nM	COc1cccc([C@@H](C)Nc2ncc(-c3nc4ccccc4s3)c(N[C@@H]3C[C@H](CO)[C@@H](O)[C@H]3O)n2)c1 [Example 36, (1R,2S,3R,5R)-3-((5-(benzo[d]thiazol-2-yl)-2-(((R)-1-(3-methoxyphenyl)ethyl)amino)pyrimidin-4-yl)amino)-5-(hydroxymethyl)cyclopentane-1,2-diol]
10 nM	OC[C@H]1C[C@@H](Nc2nc(Nc3cccnc3)ncc2-c2nc3ccccc3s2)[C@H](O)[C@@H]1O [Example 37, (1R,2S,3R,5R)-3-((5-(benzo[d]thiazol-2-yl)-2-(pyridin-3-ylamino)pyrimidin-4-yl)amino)-5-(hydroxymethyl)cyclopentane-1,2-diol]
623 nM	Nc1ncc(-c2ccccn2)c(N[C@@H]2C[C@H](CO)[C@@H](O)[C@H]2O)n1 [Example 38, (1R,2S,3R,5R)-3-((2-amino-5-(pyridin-2-yl)pyrimidin-4-yl)amino)-5-(hydroxymethyl)cyclopentane-1,2-diol]
